Test results taken from patent US20240270762A1, “PENICILLIN-BINDING PROTEIN INHIBITORS” (priority 2021, published 2024).
Converted amounts (≈) assume the structure as drawn.

Tests used:
N. gonorrhoeae WHO Z = assay: Liquid broth MIC in Fastidious broth; details: Neisseria gonorrhoeae, read-out: Minimum Inhibitory Concentration (MIC), N. gonorrhoeae WHO Z
[1] = target: T1, PBP3 from Escherichia coli (K-12) (Escherichia coli, UniProt P0AD68); assay: Bocillin-FL fluorescence polarization competition binding, E. coli PBP3
T1 construct: made in house
T1 sequence (P0AD68 1-577): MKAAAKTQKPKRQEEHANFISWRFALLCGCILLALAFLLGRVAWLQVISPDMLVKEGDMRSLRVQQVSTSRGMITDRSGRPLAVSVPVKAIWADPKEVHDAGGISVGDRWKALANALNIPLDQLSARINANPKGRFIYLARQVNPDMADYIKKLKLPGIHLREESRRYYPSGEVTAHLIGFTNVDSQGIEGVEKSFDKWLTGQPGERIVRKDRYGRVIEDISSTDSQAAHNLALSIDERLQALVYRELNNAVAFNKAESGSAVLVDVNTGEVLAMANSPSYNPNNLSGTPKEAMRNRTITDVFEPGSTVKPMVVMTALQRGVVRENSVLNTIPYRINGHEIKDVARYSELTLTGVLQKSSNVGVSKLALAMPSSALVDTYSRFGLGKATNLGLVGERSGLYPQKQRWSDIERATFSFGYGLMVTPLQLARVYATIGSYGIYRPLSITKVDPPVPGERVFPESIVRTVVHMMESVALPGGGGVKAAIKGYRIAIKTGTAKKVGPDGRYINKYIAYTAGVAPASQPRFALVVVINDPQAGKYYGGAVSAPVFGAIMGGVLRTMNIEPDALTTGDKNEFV
Procedure, shortened: (§1)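 Purified PBP was preincubated with inhibitor (E. coli PBP3 1.5 μM, 30 min; P. aeruginosa PBP3 0.75 μM, A. baumannii PBP3 0.2 μM and PBP1a 1 μM, 15 min), then Bocillin-FL (0.1 μM; 0.05 μM for PBP1a) added and FP read up to 60 min. EC50 = 50% loss of bound probe.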

A. baumannii ATCC 19606 = assay: microbe, parasite or virus in culture; type: cell-based; details: Acinetobacter baumannii, ATCC19606, read-out: MIC, A. baumannii ATCC 19606
A. baumannii CDC-0033 = assay: microbe, parasite or virus in culture; type: cell-based; details: Acinetobacter baumannii, CDC0033, read-out: MIC, A. baumannii CDC-0033
N. gonorrhoeae WHO K = assay: Liquid broth MIC in Fastidious broth; details: Neisseria gonorrhoeae, read-out: Minimum Inhibitory Concentration (MIC), N. gonorrhoeae WHO K
Experimental: Liquid broth-based assays were used for antibacterial testing of PBP inhibitors in Neisseria gonorrhoeae. Briefly, cryo-preserved bacterial cultures of clinical strains were streaked for isolation on Chocolate Agar (72 g/L (2×) GC Agar Base (BD #228950) and 2% (2×) Hemoglobin was autoclaved at 121° C. for 20 minutes to sterilize. Once cooled to ˜50° C. the 2×GC Agar Base and 2× Hemoglobin solutions are combined and 1% IsoVitaleX Enrichment (BD #211876) was added to the solution). Strains were incubated at 36° C. and 5% CO2 to allow growth of colonies, 24 hours before inoculum preparation. 2-fold serial dilutions of test compounds were conducted in a 96 well plate with a final volume of 75 μL per well at 2-fold the final desired concentration in Fastidious broth (Remel #R07664). For preparation of assay inoculum, a direct suspension was prepared by aseptically swabbing 10-15 colonies from agar plates into culture tubes containing 2 mL of fresh sterile saline. After the dilution plates were set up, direct suspensions were then diluted in a cuvette containing sterile saline and the optical density was measured at 600 nm. Inocula were diluted such that 75 μL of this culture in Fastidious broth results in a starting bacterial concentration of 5×10^5 CFU/mL when added to the dilution plates. The plates were incubated for ˜24 hours at 36° C. and 5% CO2.

[2] = test system: P. aeruginosa (ΔmexAB-oprM); assay: Broth microdilution MIC in iron-depleted CAMHB (IDM); type: cell-based; details: Pseudomonas aeruginosa; iron-depleted CAMHB (IDM); […]; read-out: Minimum inhibitory concentration, P. aeruginosa ΔmexAB-oprM
[3] = target: T2, PBP1a from Acinetobacter baumannii (ATCC 19606) (Acinetobacter baumannii, UniProt A0ABX6CK30); assay: Bocillin-FL fluorescence polarization competition binding, A. baumannii PBP1a; details: fluorescence polarization competition binding assay using Bocillin-FL; read-out: A. baumannii PBP1a Potency
T2 sequence (A0ABX6CK30 1-851): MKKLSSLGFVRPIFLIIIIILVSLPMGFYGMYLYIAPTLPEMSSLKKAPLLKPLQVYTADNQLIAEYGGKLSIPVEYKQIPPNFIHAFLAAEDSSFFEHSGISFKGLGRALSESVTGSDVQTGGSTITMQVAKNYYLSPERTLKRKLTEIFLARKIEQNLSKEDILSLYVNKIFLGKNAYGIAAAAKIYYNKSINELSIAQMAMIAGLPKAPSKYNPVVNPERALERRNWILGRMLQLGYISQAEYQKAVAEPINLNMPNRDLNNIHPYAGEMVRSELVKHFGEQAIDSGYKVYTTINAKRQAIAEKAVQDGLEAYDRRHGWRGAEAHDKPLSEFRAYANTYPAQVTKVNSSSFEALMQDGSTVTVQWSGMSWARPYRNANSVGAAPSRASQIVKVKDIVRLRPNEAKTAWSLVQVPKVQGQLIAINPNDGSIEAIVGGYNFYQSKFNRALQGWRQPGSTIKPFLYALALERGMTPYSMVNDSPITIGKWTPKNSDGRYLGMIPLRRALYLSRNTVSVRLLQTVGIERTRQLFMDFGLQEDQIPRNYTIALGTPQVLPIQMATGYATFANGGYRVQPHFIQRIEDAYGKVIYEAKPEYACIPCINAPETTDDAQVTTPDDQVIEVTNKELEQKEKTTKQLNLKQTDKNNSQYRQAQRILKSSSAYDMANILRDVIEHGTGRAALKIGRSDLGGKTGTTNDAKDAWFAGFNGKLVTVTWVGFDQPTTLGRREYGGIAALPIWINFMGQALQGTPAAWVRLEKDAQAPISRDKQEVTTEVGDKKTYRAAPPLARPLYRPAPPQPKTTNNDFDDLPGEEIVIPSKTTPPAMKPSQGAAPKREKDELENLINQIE
Procedure, shortened: as §1

A. baumannii ATCC 17978 = assay: microbe, parasite or virus in culture; type: cell-based; details: Acinetobacter baumannii, ATCC17978, read-out: MIC, A. baumannii ATCC 17978

| Structure (SMILES) | MIC (N. gonorrhoeae WHO Z) [µg/mL] | EC50 [1] [µM] | MIC (A. baumannii ATCC 19606) [µg/mL] | MIC (A. baumannii CDC-0033) [µg/mL] | MIC (N. gonorrhoeae WHO K) [µg/mL] | MIC [2] [µg/mL] | IC50 [3] [µM] | MIC (A. baumannii ATCC 17978) [µg/mL] |
| --- | --- | --- | --- | --- | --- | --- | --- | --- |
| O=C(NCCCN1CCN(C(=O)NC(C(=O)N[C@H]2Cc3ccc(F)c(C(=O)O)c3OB2O)c2cc(F)c(O)c(O)c2Cl)C(=O)C1=O)Nc1ccc(O)cc1 (stereo partly drawn) [Example 227, (3R)-3-(2-(2-chloro-5-fluoro-3,4-dihydroxyphenyl)-2-(4-(3-(3-(4-hydroxyphenyl)ureido)propyl)-2,3-dioxopiperazine-1-carboxamido)acetamido)-7-fluoro-2-hydroxy-3,4-dihydro-2H-benzo[e][1,2]oxaborinine-8-carboxylic acid] | 16 to 32 (≈ 20.6 to 41.3 µM) | 10 to 50 | < 1 | 2 to 4 (≈ 2.58 to 5.16 µM) | > 64 | < 1 | > 250 | < 1 |
| O=C(NCCCN1CCN(C(=O)NC(C(=O)N[C@H]2Cc3ccc(F)c(C(=O)O)c3OB2O)c2cc(F)c(O)c(O)c2Cl)C(=O)C1=O)Nc1ccncc1 (stereo partly drawn) [Example 228, (3R)-3-(2-(2-chloro-5-fluoro-3,4-dihydroxyphenyl)-2-(2,3-dioxo-4-(3-(3-(pyridin-4-yl)ureido)propyl)piperazine-1-carboxamido)acetamido)-7-fluoro-2-hydroxy-3,4-dihydro-2H-benzo[e][1,2]oxaborinine-8-carboxylic acid] | > 64 | < 10 | < 1 | 2 to 4 (≈ 2.63 to 5.26 µM) | > 64 | < 1 | > 250 | < 1 |
| O=C(O)c1c(F)ccc2c1OB(O)[C@@H](NC(=O)[C@H](NC(=O)N1CCN(CCNC(=O)[C@@H]3CCCN3)C(=O)C1=O)c1cc(F)c(O)c(O)c1Cl)C2 [Example 229, (R)-3-((R)-2-(2-chloro-5-fluoro-3,4-dihydroxyphenyl)-2-(2,3-dioxo-4-(2-((S)-pyrrolidine-2-carboxamido)ethyl)piperazine-1-carboxamido)acetamido)-7-fluoro-2-hydroxy-3,4-dihydro-2H-benzo[e][1,2]oxaborinine-8-carboxylic acid] | 16 to 32 (≈ 22.1 to 44.3 µM) | 10 to 50 | < 1 | 8 to 16 (≈ 11.1 to 22.1 µM) | 16 to 32 (≈ 22.1 to 44.3 µM) | < 1 | > 250 | < 1 |
| O=C(CN1CCN(C(=O)NC(C(=O)N[C@H]2Cc3ccc(F)c(C(=O)O)c3OB2O)c2cc(F)c(O)c(O)c2Cl)C(=O)C1=O)Nc1ccc(O)cc1 (stereo partly drawn) [Example 230, (3R)-3-(2-(2-chloro-5-fluoro-3,4-dihydroxyphenyl)-2-(4-(2-((4-hydroxyphenyl)amino)-2-oxoethyl)-2,3-dioxopiperazine-1-carboxamido)acetamido)-7-fluoro-2-hydroxy-3,4-dihydro-2H-benzo[e][1,2]oxaborinine-8-carboxylic acid] | 4 to 8 (≈ 5.47 to 10.9 µM) | < 10 | < 1 | 2 to 4 (≈ 2.73 to 5.47 µM) | 16 to 32 (≈ 21.9 to 43.7 µM) | < 1 | > 250 | < 1 |
| O=C(CN1CCN(C(=O)NC(C(=O)N[C@H]2Cc3ccc(F)c(C(=O)O)c3OB2O)c2cc(F)c(O)c(O)c2Cl)C(=O)C1=O)Nc1cccc(O)c1 (stereo partly drawn) [Example 231, (3R)-3-(2-(2-chloro-5-fluoro-3,4-dihydroxyphenyl)-2-(4-(2-((3-hydroxyphenyl)amino)-2-oxoethyl)-2,3-dioxopiperazine-1-carboxamido)acetamido)-7-fluoro-2-hydroxy-3,4-dihydro-2H-benzo[e][1,2]oxaborinine-8-carboxylic acid] | 16 to 32 (≈ 21.9 to 43.7 µM) | < 10 | < 1 | 8 to 16 (≈ 10.9 to 21.9 µM) | 16 to 32 (≈ 21.9 to 43.7 µM) | < 1 | > 250 | < 1 |
